Test results from patent US20250345426A1, “METHODS FOR MAKING AND USING THERAPEUTIC CELLS” (THE REGENTS OF THE UNIVERSITY OF CALIFORNIA, priority 2022, published 2025).

Tested on: rituximab CAR-T cells
Test: Antigen-independent activation and exhaustion marker expression by flow cytometry, rituximab CAR-T cells
Format: cell-based, human
Settings: for measures of antigen-independent CAR-T cell activation: FIG. 1B-D (markers, TNF-α, cell division), MYCi975 2 μM
Source text: FIG. 1A-G. Pharmacological inhibition of PI3K/AKT pathway modulates antigen-independent CAR-T cell activation. (A) Table of pharmacological inhibitors used during ex vivo expansion of rituximab CAR-T cells (left). Simplified schematic of the PI3K/AKT signaling axis where black arrows represent activation (right). (B) Activation marker expression by CAR^+ T cells in the absence of antigen stimulation after 5 days of pharmacological modulation. Data bars indicate the means of technical triplicates±1 S.D. The bars in FIG. 1B represent data from, untreated, vehicle, CAL-101, AZD5363, Rapamycin, MYCi975, and Betulin, respectively, from left to right. (C) TNF-α production CAR^+ T cells in the absence of antigen stimulation as quantified by intracellular flow cytometry. Data bars indicate the means of technical triplicates±1 S.D. The bars in FIG. 1B and FIG. 1C represent data from, untreated, vehicle, CAL-101, AZD5363, Rapamycin, MYCi975, and Betulin, respectively, from left to right. (D) Proliferation of CAR^+ T cells stained with CellTrace Violet (CTV) dye was assayed after a 4-day culture in the absence of target cells or exogenous cytokines. Data shown in the histogram correspond to one of technical triplicates shown in the bar graph. The bars FIG. 1D represent data from, EGFRt, untreated, vehicle, CAL-101, AZD5363, Rapamycin, MYCi975, and Betulin, respectively, from left to right. (E) % distribution of T-cell subtypes in CAR^+ T cells after 5 days of pharmacological modulation. Data bars indicate the means of technical triplicates±1 S.D. (F) Rituximab CAR-T cell fold expansion after 6 days of inhibitor culture was tracked. T-cell fold expansion was normalized to the untreated control with each data point representing biological replicates collected from healthy donors. The bars FIG. 1F represent data from, EGFRt, vehicle, CAL-101, AZD5363, Rapamycin, MYCi975, and Betulin, respectively, from left to right. (G) A 24-hr lysis assay of CD20 CAR-T cells against Raji target cells at three effector-to-target (E:T) ratios. Data bars indicate the means of technical triplicates±1 S.D. Percent lysis was normalized to cell counts in target-only wells. […] In (B)-(F), results are representative two independent experiments using cells from of two heathy donors. Statistical significance in panels B, C, and D was determined by two-tailed Student's t test with Sidak correction for multiple comparisons. * p<0.05, ** p<0.01, *** p<0.001, n.s. not statistically significant. […]
Antibody staining for flow-cytometry analysis. EGFRt expression was measured with biotinylated cetuximab (Eli Lilly; biotinylated in-house), followed by PE-conjugated streptavidin (Jackson ImmunoResearch #016-110-084). CAR expression was quantified by surface epitope staining using anti-Fc (Alexa Fluor 488, Jackson ImmunoResearch #709-546-098). Antigen-independent activation-marker expression of CAR-T cells was evaluated by antibody staining for CD137 (PE/Cy7, clone 4B4-1, BioLegend #309818), and PD-1 (FITC, clone EH12.2H7, BioLegend #329904) on Days 18 (i.e., 18 days after Dynabead addition and 11 days after Dynabead removal) and after 5-6 days of inhibitor culture (FIG. 1, FIG. 3). T-cell subtype of CAR-T cells was evaluated by antibody staining for CD45RO (VioBlue®, clone REA611, Miltenyi #130-119-620) and CD62L (APC, clone DREG56, Invitrogen #17-0629-42) after 5-6 days of inhibitor culture (FIG. 1, FIG. 3). […]

Molecule	tonic signaling	measures of antigen-independent CAR-T cell activation
C=C(C)[C@@H]1CC[C@]2(CO)CC[C@]3(C)[C@H](CC[C@@H]4[C@@]5(C)CC[C@H](O)C(C)(C)[C@@H]5CC[C@]43C)[C@@H]12 [betulin, Betulin]	increased	increased most measures
MYCi975	increased	increased most measures
